Measured values reported in patent US12435091B2, “RNA-binding protein multimerization inhibitors and methods of use thereof” (THE UAB RESEARCH FOUNDATION, priority 2020, dated 2025).
Values after ≈ are worked out from the molar mass of the structure shown. Where two headings read alike, the source gives them in different places.

How the values were obtained:
[1] = aqueous solubility at pH 7.4; assay type: physicochemical; settings: for solubility: aqueous medium at pH 7.4, pH 7.4, aqueous buffer, read-out: Sol @ pH 7.4
Description: (§3) Selected compounds were assessed for their aqueous solubility, Log D and mouse and human liver microsomal stability.

HuR = biological target: T1, HuR (Homo sapiens, UniProt Q15717); assay: cell-based split firefly luciferase-HuR dimerization assay; settings: for IC50: read-out: HuR IC50
T1 construct: expressed in transfected cells; host or cells: U251 glioma cells, doxycycline-inducible constructs
Description: (§1) The oncogenic activity of HuR is driven by subcellular localization into the cytoplasm and formation of multimers of HuR. To develop cell based assays to characterize the ability of small molecules to disrupt this process, a split luciferase assay detecting the formation of HuR dimers was developed. The assays were performed in 96 well plates with clear bottom (Corning Inc., Corning, NY). Cells with designed constructs (30,000-50,000 in number) were plated per well; the constructs were induced by doxycycline (0.75 ug/ml) for 48 hours. The evaluated compounds at different concentrations and the corresponding vehicle as the control were administered for 6 hours. The luminescence signals were detected by using InfinitiM200 plate reader (TECAN, Morrisville, NC) in the presence of the luciferase substrate luciferin (D-Luciferin, potassium salt), which was purchased from GoldBio (St Louis, MO). A multichannel pipette (XL 3000I™, Denville Scientific, South Plainfield, NJ) was used in all procedures to ensure the experiment quality.
The assay used the coding sequence of HuR in frame with the N-terminus of firefly luciferase or the C-terminus as depicted in FIG. 2A. When HuR forms dimers in this case, luciferase is generated and with luciferin present, luminescence is generated.
(§2) Squares represent luminescence signal from reporter representing HuR dimers (U251 cells co-expressing HuR-Nluc and HuR-Cluc constructs); circles represent luminescence signal from control reporter (U251 cells expressing Fluc construct). Results are shown as mean+SD.

[2] = system: U251 cells expressing Fluc construct; assay: control Fluc (full length luciferase) reporter assay in U251 cells; assay type: cell-based; settings: for inhibition at 50 µM / inhibition at 100 µM: Homo sapiens, U-251, 6 h, read-out: Fluc Imax % Inh; for inhibition at 50 µM: Concn 50 uM; for inhibition at 100 µM: Concn 100 uM
Description: as §1, with “quality. […]” for “quality.”
as §2

Log D at pH 7.4 = assay type: physicochemical
Description: as §3

[3] = Mouse liver microsomal stability in vitro; assay type: in vitro ADME; settings: liver microsomes, read-out: MLM t1/2
Description: as §3

in vitro = settings: human, liver microsomes
Description: as §3

[4] = U251 cells co-expressing HuR-Nluc and HuR-Cluc, 6 hours of treatment
[5] = split luciferase HuR dimerization assay, compounds administered for 6 hours

T1 sequence (Q15717 whole entry): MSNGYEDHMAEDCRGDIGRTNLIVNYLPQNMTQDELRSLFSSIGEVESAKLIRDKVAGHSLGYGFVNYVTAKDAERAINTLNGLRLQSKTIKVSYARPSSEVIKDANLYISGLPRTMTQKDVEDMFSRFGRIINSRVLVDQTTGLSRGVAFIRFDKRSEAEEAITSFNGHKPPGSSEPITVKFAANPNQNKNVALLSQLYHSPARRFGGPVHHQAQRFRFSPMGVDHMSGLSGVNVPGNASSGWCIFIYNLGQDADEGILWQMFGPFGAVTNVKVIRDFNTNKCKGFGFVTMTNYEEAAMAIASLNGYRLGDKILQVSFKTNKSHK

Row | Compound | HuR N/C Imax % Inh (HuR; Concn 50 uM) [%] | IC50 (HuR; [4]) [nM] | inhibition at 50 µM [2] [%] | IC50 (HuR; [5]) [nM] | solubility [1] [µM] | logD (Log D at pH 7.4) | half-life [3] [min] | half-life (in vitro) [min] | other results
1 | CN(c1cnn(C2CCOCC2)c1)c1ncc2nnn(-c3ccc4cn[nH]c4c3)c2n1 [Compound 3, 3-(1H-Indazol-6-yl)-N-methyl-N-(1-(tetrahydro-2H-pyran-4-yl)-1H-pyrazol-4-yl)-3H-[1,2,3]triazolo[4,5-d]pyrimidin-5-amine] | – | – | – | – | – | – | – | – | aqueous solubility (in words) [1]: poor aqueous solubility
2 | c1cc2cn[nH]c2cc1-n1nnc2cnc(NC3CCOCC3)nc21 [Compound 4, 3-(1H-Indazol-6-yl)-N-(tetrahydro-2H-pyran-4-yl)-3H-[1,2,3]triazolo[4,5-d]pyrimidin-5-amine] | 85 | 5000 | 36 | – | – | – | – | – | aqueous solubility (in words) [1]: improved aqueous solubility
3 | CN(c1ccc2ncc(-c3ccc4cc[nH]c4c3)n2n1)C1CCOCC1 [Compound 13] | – | – | – | 28000 | 12.8 (≈ 4.45 µg/mL) | 2.2 | 5.6 | 6.8 | –
4 | Cn1ncc2ccc(-c3cnc4ccc(NC5CCOCC5)nn34)cc21 [Compound 20] | 93 | 1200 | 35 | 1200 | 79.6 (≈ 27.7 µg/mL) | 2.9 | 8.1 | 11.6 | –
5 | FC1(F)CCC(Nc2ccc3ncc(-c4ccc5cn[nH]c5c4)n3n2)CC1 [Compound 23, N-(4,4-Difluorocyclohexyl)-3-(1H-indazol-6-yl)imidazo[1,2-b]pyridazin-6-amine] | 92 | 2800 | 39 | 2800 | 2.1 (≈ 0.774 µg/mL) | > 4.23 | 3.9 | 27.3 | –
6 | CCCN(C)c1ccc2ncc(-c3ccc4cn[nH]c4c3)n2n1 [Compound 24, 3-(1H-Indazol-6-yl)-N-methyl-N-propylimidazo[1,2-b]pyridazin-6-amine] | – | 2200 | – | 2200 | 10.9 (≈ 3.34 µg/mL) | > 4.18 | 3.1 | 9.7 | HuR N/C Imax % Inh (HuR; Concn 100 uM): 93%; inhibition at 100 µM [2]: 10%
7 | CN(c1ccc2ncc(-c3ccc4cn[nH]c4c3)n2n1)C1CCC(F)(F)CC1 [Compound 29] | – | – | – | – | 77.3 (≈ 29.6 µg/mL) | 0.9 | 15.3 | 82.8 | HuR IC50 (HuR; [5]): Insoluble^b
8 | CCCN(C)c1ccc2ncc(-c3ccc4cnn(C)c4c3)n2n1 [Compound 30, N-Methyl-3-(1-methyl-1H-indazol-6-yl)-N-propylimidazo[1,2-b]pyridazin-6-amine] | 91 | 2200 | 36 | 2200 | 2.5 (≈ 0.801 µg/mL) | > 4.55 | 1.3 | 7.9 | –
9 | Cc1n[nH]c2cc(-c3cnc4ccc(N(C)C5CCOCC5)nn34)ccc12 [Compound 32, N-Methyl-3-(3-methyl-1H-indazol-6-yl)-N-(tetrahydro-2H-pyran-4-yl)imidazo[1,2-b]pyridazin-6-amine] | – | – | – | > 50000 | < 1 | > 4.35 | 7.3 | 9 | –
10 | CC1(C)CC(Nc2ccc3ncc(-c4ccc5[nH]ncc5c4)n3n2)CCO1 (stereo not drawn) [Compound 45, N-(2,2-Dimethyltetrahydro-2H-pyran-4-yl)-3-(1H-indazol-5-yl)imidazo[1,2-b]pyridazin-6-amine] | 92 | 1100 | 25 | 1100 | 3.4 (≈ 1.23 µg/mL) | > 4.06 | 8.7 | 7.2 | HuR inhibition activity (in words) (HuR): potent activity
11 | FC1(F)CCC(Nc2ccc3ncc(-c4ccc5[nH]ncc5c4)n3n2)CC1 [Compound 46, N-(4,4-Difluorocyclohexyl)-3-(1H-indazol-5-yl)imidazo[1,2-b]pyridazin-6-amine] | 91 | 2100 | 17 | 2100 | 1 (≈ 0.368 µg/mL) | > 4.16 | 4.4 | 11.5 | –
12 | CCCNc1ccc2ncc(-c3ccc4[nH]ncc4c3)n2n1 [Compound 48] | 90 | 700 | 29 | 700 | 3.2 (≈ 0.936 µg/mL) | – | 2.2 | 6.1 | –
13 | FC(F)(F)CNc1ccc2ncc(-c3ccc4[nH]ncc4c3)n2n1 [Compound 50, 3-(1H-Indazol-5-yl)-N-(2,2,2-trifluoroethyl)imidazo[1,2-b]pyridazin-6-amine] | 93 | 190 | 26 | 190 | 2.6 (≈ 0.864 µg/mL) | > 4.15 | 2.6 | 12.1 | –
14 | c1cc2cn[nH]c2cc1-c1cnc2ccc(OC3CCOCC3)nn12 [Compound 58] | 82 | – | 23 | 3000 | – | – | – | – | –
15 | c1nn(C2CCOCC2)cc1Nc1ncc2nnn(-c3ccc4cn[nH]c4c3)c2n1 [Compound A-92] | 93 | 4500 | 32 | – | – | – | – | – | maximum inhibition of HuR dimerization (HuR; after 6 hours of cell treatment): 93±2%; decrease of luminescence signal from cells overexpressing the control Fluc construct ([2]; 6 hours, represents the cytotoxic effect): 32±7%
16 | FC(F)(F)c1nnc2ccc(NCCc3c[nH]c4ccccc34)nn12 [SRI-41639] | – | > 100000 | – | – | – | – | – | – | HuR N/C Imax % Inh (HuR; Concn 100 uM): 49%; inhibition at 100 µM [2]: 17%
17 | Cc1cc(-c2cnn3c(NC[C@H]4C[C@@](C)(O)C4)cc(Oc4cccnc4)nc23)ccc1C(=O)NC1CC1 [SRI-41646] | – | > 100000 | – | – | – | – | – | – | HuR N/C Imax % Inh (HuR; Concn 100 uM): 3%; inhibition at 100 µM [2]: 15%
18 | CN1CCN(Cc2ccc(-c3cnc4[nH]cc(-c5ccc6[nH]ccc6c5)c4c3)cc2)CC1 [SRI-41647] | 89 | > 25000 | 4 | – | – | – | – | – | –
19 | Clc1ncc2nnn(-c3ccc4cn[nH]c4c3)c2n1 [SRI-42123] | 0 | – | 0 | – | – | – | – | – | –
20 | Brc1cnc2ccc(NC3CCOCC3)nn12 [SRI-42219] | 82 | 20000 to 22000 | 32 | – | – | – | – | – | –
21 | Clc1ccc2ncc(-c3ccc4cn[nH]c4c3)n2n1 [SRI-43183] | – | – | – | – | – | – | – | – | HuR N/C Imax % Inh (HuR; Concn 100 uM): 76%; inhibition at 100 µM [2]: 20%
22 | COc1ncccc1-c1cnn2ccc(N3CCN(C(=O)OC(C)C)CC3)nc12 [SRI-43414] | 45 | > 50000 | 28 | – | – | – | – | – | –
23 | CN(CCNc1ccc2ncc(-c3ccc(C(N)=O)cc3)n2n1)C(=O)OC(C)(C)C [SRI-43415] | 57 | 40000 | 9 | – | – | – | – | – | –
24 | COc1ccc(-c2[nH]ncc2C(=O)NCC2CC2)cc1Cl [SRI-43649] | 0 | – | 0 | – | – | – | – | – | –
25 | O=C(c1ccc2nsnc2c1)N1CCN(C(=O)C2CC2c2cccs2)CC1 (stereo not drawn) [SRI-43650] | 0 | – | 0 | – | – | – | – | – | –
26 | Cc1ccc(S(=O)(=O)NC(C(=O)Oc2ccc3c4c(c(=O)oc3c2C)CCC4)c2ccccc2)cc1 (stereo not drawn) [SRI-43651] | 0 | – | 0 | – | – | – | – | – | –
27 | CCC(C)NS(=O)(=O)c1ccc2oc(=O)ccc2c1 (stereo not drawn) [SRI-43652] | 0 | – | 0 | – | – | – | – | – | –
28 | O=C(c1ccc(=O)[nH]c1)N1CCN(C(=O)C2CC2c2ccccc2)CC1 (stereo not drawn) [SRI-43653] | 0 | – | 0 | – | – | – | – | – | –
29 | O=C(CCn1ccc(=O)[nH]c1=O)N1CCN(C(=O)C2CC2c2ccc3c(c2)OCO3)CC1 (stereo not drawn) [SRI-43654] | 0 | – | 0 | – | – | – | – | – | –
30 | O=C(C1CCCC1)N1CCN(C(=O)C2CC2c2ccc3c(c2)OCO3)CC1 (stereo not drawn) [SRI-43655] | 28 | > 50000 | 10 | – | – | – | – | – | –
